Results on 53 compounds are retold here after ChEMBL document CHEMBL1201862, “PubChem BioAssay data set” (2004).

A short description of data set [1]: Luminescence Cell-Based Dose Response HTS to Identify Activators of Luciferase Translation or Activity in H4 […] Cells. [Related pubchem assays: 1829 (Project Summary), 1814 (Primary HTS)]. It is filed as functional.
Data set [2] addresses T1, Heat shock factor protein 1 (Mus musculus, UniProt P38532).
T1 sequence (P38532 whole entry): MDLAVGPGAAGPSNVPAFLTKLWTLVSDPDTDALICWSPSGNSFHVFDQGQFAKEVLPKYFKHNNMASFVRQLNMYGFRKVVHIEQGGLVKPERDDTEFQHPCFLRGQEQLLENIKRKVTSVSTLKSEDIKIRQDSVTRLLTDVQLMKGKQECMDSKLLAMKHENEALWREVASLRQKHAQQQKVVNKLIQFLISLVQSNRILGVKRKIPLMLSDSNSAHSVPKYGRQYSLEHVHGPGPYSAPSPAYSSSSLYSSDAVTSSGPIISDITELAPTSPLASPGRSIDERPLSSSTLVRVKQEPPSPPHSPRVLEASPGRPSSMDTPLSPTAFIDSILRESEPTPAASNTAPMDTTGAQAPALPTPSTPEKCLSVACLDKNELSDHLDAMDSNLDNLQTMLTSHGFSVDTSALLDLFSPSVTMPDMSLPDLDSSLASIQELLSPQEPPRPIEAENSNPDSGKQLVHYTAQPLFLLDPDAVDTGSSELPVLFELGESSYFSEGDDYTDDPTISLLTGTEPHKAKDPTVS
As to the kind of experiment: decrease of HSF1-responsive luciferase luminescence – cell-based, NIH3T3, dose retest, confirmation (AID 2382).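 Also: NIH3T3 fibroblasts with HSF1-driven luciferase reporter stressed by proteasome inhibitor MG132; luminescence from HSF1-driven luciferase expression after 8 hours of MG132 stress.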 It is filed as functional.

The target of data set [3] is Cytochrome P450 2C9 (Homo sapiens, UniProt P11712).
Data set [4] in a line: viability of uninfected HEp-2 cells – cell-based, HTS, cytotoxicity control for RSV inhibitor project, dose response (AID 2410). It is filed as functional. To be noted: human respiratory syncytial virus.
Data set [5] concerns the target Cytochrome P450 2D6 (Homo sapiens, UniProt P10635).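 Also: CYP2D6 member of a cytochrome P450 panel assay.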
For data set [6], the target named is T2, Corticotropin-releasing factor receptor 2/Corticotropin-releasing factor-binding protein (Homo sapiens, UniProt P24387+Q13324).
T2 sequence (Q13324 whole entry): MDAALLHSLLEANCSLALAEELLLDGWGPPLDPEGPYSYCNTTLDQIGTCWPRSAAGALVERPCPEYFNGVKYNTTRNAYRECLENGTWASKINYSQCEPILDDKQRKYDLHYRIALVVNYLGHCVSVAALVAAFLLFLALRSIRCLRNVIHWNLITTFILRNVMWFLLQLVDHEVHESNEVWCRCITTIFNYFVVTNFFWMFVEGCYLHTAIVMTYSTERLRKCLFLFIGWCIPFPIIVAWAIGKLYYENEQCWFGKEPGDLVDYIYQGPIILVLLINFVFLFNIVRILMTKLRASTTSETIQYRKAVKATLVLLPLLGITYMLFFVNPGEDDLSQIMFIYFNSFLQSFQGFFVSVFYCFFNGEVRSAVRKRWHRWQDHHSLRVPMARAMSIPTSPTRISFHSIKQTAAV
T2 sequence (P24387 whole entry): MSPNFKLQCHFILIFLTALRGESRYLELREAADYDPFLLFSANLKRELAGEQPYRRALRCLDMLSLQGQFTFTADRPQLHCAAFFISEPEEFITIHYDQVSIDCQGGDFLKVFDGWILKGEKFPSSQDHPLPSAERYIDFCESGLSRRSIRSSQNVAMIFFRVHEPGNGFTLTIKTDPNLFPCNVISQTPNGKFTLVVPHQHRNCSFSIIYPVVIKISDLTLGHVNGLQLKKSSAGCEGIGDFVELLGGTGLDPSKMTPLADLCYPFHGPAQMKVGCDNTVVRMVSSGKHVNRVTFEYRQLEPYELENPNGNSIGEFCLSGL
The experiment in a line: Dose Response confirmation of uHTS hits for small molecule antagonists of the CRF-binding protein and CRF-R2 receptor complex. It is filed as functional. To be noted: read-out: IC50_Mean.

In data set [7] the target is T2, Corticotropin-releasing factor receptor 2/Corticotropin-releasing factor-binding protein. The experiment in a line: activators of CRF receptor 2 with binding protein – uHTS hits, confirmation (AID 602473). It is filed as functional. The settings on record: read-out: EC50_Mean.
The target of data set [8] is Cytochrome P450 2C19 (Homo sapiens, UniProt P33261). The experiment in a line: Cytochrome panel assay with activity outcomes. Panel member name: p450-cyp2c19 Compounds with AC50 equal or less than 10 uM are considered active. It is filed as functional.
A short description of data set [9]: cells. It is filed as functional.
Data set [10] in a line: NIH-3T3 fibroblast cytotoxicity, dose response, cytotoxicity control, cell-based, fluorescence, Alamar Blue, secondary assay (AID 2327).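 Also: NIH-3T3 mouse fibroblasts cultured with fluconazole at 8 µg/mL.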 It is filed as functional.
For data set [11], the target named is Paired box protein Pax-8 (Homo sapiens, UniProt Q06710). The experiment in a line: PAX8 transcriptional activity inhibition in RMG-I – RMG-I cells, luciferase, cherry-pick, dose response (AID 687027).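 Also: luciferase reporter driven by Pax8 target thyroperoxidase promoter measured by SteadyGlo luminescence.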 It is filed as functional, cell-based.

Activity calls are given as the source filed them.

Chain of Cytochrome P450 2C9 (P11712 whole entry): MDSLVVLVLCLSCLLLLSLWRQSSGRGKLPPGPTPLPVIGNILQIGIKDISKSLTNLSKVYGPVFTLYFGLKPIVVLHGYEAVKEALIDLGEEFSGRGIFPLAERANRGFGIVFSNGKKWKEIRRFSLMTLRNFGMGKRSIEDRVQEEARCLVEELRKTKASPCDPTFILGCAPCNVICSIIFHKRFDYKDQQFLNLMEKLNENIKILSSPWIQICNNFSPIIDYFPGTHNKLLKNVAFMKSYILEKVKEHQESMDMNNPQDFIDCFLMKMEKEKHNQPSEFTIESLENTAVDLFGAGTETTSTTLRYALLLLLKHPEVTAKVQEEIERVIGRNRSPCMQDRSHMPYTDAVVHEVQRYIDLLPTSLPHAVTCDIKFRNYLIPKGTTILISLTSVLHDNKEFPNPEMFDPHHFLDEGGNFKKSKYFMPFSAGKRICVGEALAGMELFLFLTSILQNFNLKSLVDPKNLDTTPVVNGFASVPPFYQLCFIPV
Chain of Cytochrome P450 2D6 (P10635 whole entry): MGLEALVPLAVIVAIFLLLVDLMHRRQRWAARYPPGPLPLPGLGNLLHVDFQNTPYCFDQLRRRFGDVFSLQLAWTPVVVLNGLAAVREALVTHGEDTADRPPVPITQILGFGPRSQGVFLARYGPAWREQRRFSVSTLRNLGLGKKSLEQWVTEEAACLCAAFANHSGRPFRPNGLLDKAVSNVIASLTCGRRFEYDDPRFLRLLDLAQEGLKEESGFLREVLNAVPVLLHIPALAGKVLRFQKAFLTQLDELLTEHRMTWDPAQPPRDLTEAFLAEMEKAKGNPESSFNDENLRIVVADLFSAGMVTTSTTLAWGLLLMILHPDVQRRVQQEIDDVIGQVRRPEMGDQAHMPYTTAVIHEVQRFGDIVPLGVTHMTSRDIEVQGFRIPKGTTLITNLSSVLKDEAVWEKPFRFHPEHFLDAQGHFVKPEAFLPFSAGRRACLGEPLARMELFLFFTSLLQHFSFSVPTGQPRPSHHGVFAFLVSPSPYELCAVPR
Chain of Cytochrome P450 2C19 (P33261 whole entry): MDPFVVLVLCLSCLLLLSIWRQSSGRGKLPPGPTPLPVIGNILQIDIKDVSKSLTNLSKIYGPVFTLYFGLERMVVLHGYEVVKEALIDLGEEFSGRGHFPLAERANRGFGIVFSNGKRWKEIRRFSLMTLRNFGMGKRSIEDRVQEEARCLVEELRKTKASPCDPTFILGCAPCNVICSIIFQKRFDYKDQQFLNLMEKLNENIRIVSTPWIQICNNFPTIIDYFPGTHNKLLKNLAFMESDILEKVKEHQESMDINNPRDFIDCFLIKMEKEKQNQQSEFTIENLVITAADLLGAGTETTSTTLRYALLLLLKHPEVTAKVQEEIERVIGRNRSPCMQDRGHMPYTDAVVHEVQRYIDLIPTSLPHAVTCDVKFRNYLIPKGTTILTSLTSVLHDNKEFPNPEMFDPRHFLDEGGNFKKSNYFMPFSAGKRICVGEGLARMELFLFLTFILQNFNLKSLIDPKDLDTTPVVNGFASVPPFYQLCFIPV
Chain of Paired box protein Pax-8 (Q06710 whole entry): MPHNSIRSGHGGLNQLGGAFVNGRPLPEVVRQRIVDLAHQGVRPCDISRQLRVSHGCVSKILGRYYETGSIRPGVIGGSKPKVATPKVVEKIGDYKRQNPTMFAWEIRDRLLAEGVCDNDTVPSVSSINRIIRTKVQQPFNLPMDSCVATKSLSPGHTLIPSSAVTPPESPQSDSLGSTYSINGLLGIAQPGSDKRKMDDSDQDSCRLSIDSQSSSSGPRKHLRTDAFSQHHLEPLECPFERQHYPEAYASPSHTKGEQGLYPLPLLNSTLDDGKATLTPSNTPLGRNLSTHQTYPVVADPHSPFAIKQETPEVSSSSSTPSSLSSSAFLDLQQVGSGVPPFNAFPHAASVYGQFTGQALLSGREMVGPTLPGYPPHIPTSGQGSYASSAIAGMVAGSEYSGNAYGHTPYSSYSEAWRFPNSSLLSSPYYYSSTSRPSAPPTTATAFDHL

With `Cc1ccc(OC(=O)c2cccc([N+](=O)[O-])c2)c(-n2nc3ccccc3n2)c1`, the EC50 in data set [1] was 0.588 µM (active). On to `CC1=CCC2C(=O)N(c3ccc(C)c(Br)c3)C(=O)C2C1` (stereo unspecified), for which the EC50 in [2] is > 195 µM (not active). On to `Nc1c(-c2cccs2)cnn1-c1nc(-c2ccc(F)cc2)cs1`, for which the EC50 in data set [1] is 0.304 µM (active). In data set [3], the half-maximal activity concentration (AC50) was 0.158 µM (inconclusive).

In the case of `CC1CCCN(C/C=C/c2ccccc2[N+](=O)[O-])C1` (stereo unspecified), in [3], the AC50 is 0.2 µM (inconclusive). `O=C1CC(N2CC=C(c3ccc(F)cc3)CC2)C(=O)N1c1ccc(F)cc1` (stereo unspecified): in data set [2], the EC50 was > 195 µM (not active). As to `COc1ccc(-c2nc(CSCC(=O)NCCC3=CCCCC3)c(C)o2)cc1OC`, in data set [4], the cytotoxic concentration (CC50) is > 50 µM (active). As for `CCC1(C)Cc2c(sc3nnn(CC(=O)Nc4ccc(C)cc4)c(=O)c23)CO1` (stereo unspecified), in data set [5], the AC50 is 22.4 µM (inconclusive).

Take `COc1ccc(C(CC(=O)O)c2ccc3c(c2)OCO3)cc1` (stereo unspecified): the IC50 in data set [6] was > 47.1 µM (inactive). Besides, the EC50 in data set [7] is > 53 µM (inactive). Turning to `COc1ccc(Oc2ncc3ncc(=O)n(Cc4cccs4)c3n2)cc1`, the AC50 was 25.1 µM (inconclusive) in [8] (read-out: AC50) and 39.8 µM (inconclusive) in [5].

For the compound `N#C/C(=C(\O)Nc1ccccc1)c1nc2ccccc2[nH]1`, the IC50 in data set [9] is 2.43 µM (active).

Take `COc1cccc(-c2cncnc2NCc2cnc(C)cn2)c1`: the AC50 in [5] was 15.8 µM (inconclusive). As for `CCCCCCC/C=C\CCCCCCCCC(=O)O`, the AC50 in data set [8] (read-out: AC50) and in data set [3] was 39.8 µM (inconclusive) in each case. As to `COc1cc(C(=O)OC2C[C@H]3CC[C@@H](C2)N3C)ccc1O` (stereo partly specified), the AC50 in data set [5] is 7.94 µM (inconclusive). As to `COc1c(OC(C)=O)ccc(/C=C/c2ccc3cccc(OC)c3n2)c1[N+](=O)[O-]`, the 50% cytotoxic concentration (CC50) in data set [4] is > 50 µM (active). Consider `CC(C)OC(=O)C(C)Oc1ccc(C(=O)NCCc2ccccc2)cc1` (stereo unspecified), for which the IC50 in data set [9] is 10.3 µM (active). As to `Cc1c(C(=O)Nc2ccc3c(c2)OCCO3)cnn1C`, the EC50 in [2] was 3.49 µM (active).

Turning to `CC1Cc2ccccc2N1C(=O)COC(=O)c1ccc(S(=O)(=O)N(C)C)cc1` (stereo unspecified), in data set [2], the EC50 is reported as > 195 µM (not active). Consider `O=C(OCn1nnc2ccccc2c1=O)c1cccs1`, for which the IC50 in [9] is 15.6 µM (active). In the case of `CCNC(=O)COC(=O)c1cc(-c2ccc(OC)cc2)nc2ccccc12`, in data set [3], the AC50 was 2.51 µM (inconclusive). As to `NC(=O)c1c(NC(=O)c2ccccc2F)sc2c1CCCC2`, the EC50 in [10] is 25.1 µM (active). For the compound `COCCCNCC(=O)c1c(N)n(Cc2ccccc2)c(=O)n(C)c1=O`, the values for the AC50 in data set [8] (read-out: AC50) and in [5] were 35.5 µM (inconclusive) and 14.1 µM (inconclusive), respectively. As to `O=C(c1ccncc1)N1CCC2(CCN(Cc3ccccc3)CC2)CC1`, the AC50 result is “inconclusive” in data set [8] and 12.6 µM (inconclusive) in data set [5]. Consider `CSCCC(=O)N1CCCC(CNC(=O)c2ccc(-c3ccccc3)cc2)C1` (stereo unspecified), for which the IC50 in data set [9] is 11.6 µM (active). Consider `COc1ccccc1C1NC(=O)CCC1[N+](=O)[O-]` (stereo unspecified), for which the EC50 in data set [2] is > 195 µM (not active). On to `CCOC(=O)C(NCc1ccccn1)(NC(=O)c1cccnc1)C(F)(F)F` (stereo unspecified), for which the IC50 in data set [6] is > 47.1 µM (inactive). Also, the EC50 in data set [7] was > 53 µM (inactive).

As for `Cn1c(CCN2CCCC2)nc2cc(NS(=O)(=O)c3ccccc3)ccc21`, the AC50 in data set [11] was 6.61 µM (active). Regarding `O=C(CNC(=S)N(CCCN1CCOCC1)Cc1cccs1)NCc1ccccc1Cl`, in data set [2], the EC50 is > 195 µM (not active). For the compound `O=C(OCc1cc(=O)n2cc(Br)ccc2n1)C1COc2ccccc2O1` (stereo unspecified), in data set [2], the EC50 is on record as > 195 µM (not active). In the case of `CCn1c2ccccc2c2cc(NC(=O)c3ccco3)ccc21`, the CC50 in data set [4] is 16.2 µM (active).

For `CCOC(=O)C[C@@H](C(=O)OCC)[C@@H]1CCCCC1=O`, the AC50 in data set [5] is 6.31 µM (inconclusive). Take `COC(=O)c1nn(-c2ccccc2)c(=O)cc1Oc1ccccc1`: in data set [3], the AC50 is 11.2 µM (inconclusive). In the case of `CCCOc1ccc2c3c(c(=O)oc2c1)CCCC3`, the CC50 in data set [4] is > 50 µM (active). In the case of `CCSc1nc2c(c(-c3ccc(C)o3)c1C#N)CCCC2`, the cytotoxic concentration (CC50) in [4] was 37.5 µM (active). `Cc1ccccc1-c1cncnc1N(C)Cc1ccco1`: in [5], the AC50 is 20 µM (inconclusive). Consider `CCOc1nc(C)ccc1-c1noc(-c2cccnc2)n1`, for which the EC50 in data set [2] is > 195 µM (not active).

Regarding `Cc1cc(Br)c2[nH]cc(CCNC(=O)c3ccco3)c2c1`, the EC50 in data set [2] is listed as > 195 µM (not active).

On to `O=S(=O)(/C=C/c1ccccc1)N1CCC(c2nc(O)c3nnn(Cc4ccccc4)c3n2)CC1`, for which the CC50 in [4] is 27.7 µM (active). For the compound `CCC(C)NC(=O)C1(C)CCC(=O)N1Cc1ccccc1OC` (stereo unspecified), the EC50 in data set [2] is > 195 µM (not active). In the case of `Cc1ccc(S(=O)(=O)N2CCC(C(=O)OCc3ccccc3)CC2)cc1C`, the IC50 in data set [9] was 18.6 µM (active). For `CC(C)OC(=O)c1cc2ccccc2oc1=O`, the AC50 in data set [3] was 10 µM (inconclusive). Regarding `CC1CCC(NC(=O)c2ccc3c(c2)S(=O)(=O)c2ccccc2C3=O)CC1` (stereo unspecified), the CC50 in [4] is > 50 µM (active). `C#CCOCCOCCOCCNc1nc(N2CCN(C(=O)Cn3cc(CCO)nn3)CC2)nc(N2CCN(C(=O)[C@H](CCCCN)n3cc(CC(C)O)nn3)CC2)n1` (stereo partly specified): the IC50 in data set [6] was > 47.1 µM (inactive). In addition, in data set [7], the EC50 is > 53 µM (inactive).

Consider `CCOC(=O)c1cnc2ccc(C(=O)OC)cc2c1Nc1ccc(C(=O)O)cc1`, for which the AC50 in data set [11] is 66.4 µM (active). As to `CCSc1nnc(-c2ccccc2NC(C)=O)c(O)n1`, the values for the AC50 result in data set [8] and in data set [3] were “inconclusive” and 31.6 µM (inconclusive), respectively. For `CN(c1ccccc1)P(=O)(N1CC1)N1CC1`, the IC50 in data set [6] is > 47.1 µM (inactive). Moreover, in data set [7], the EC50 was > 53 µM (inactive). Turning to `Cc1n[nH]c(=S)n(/N=C/c2cccs2)c1=O`, in [6], the IC50 is > 47.1 µM (inactive). In addition, in data set [7], the EC50 was > 53 µM (inactive).

`COc1ccc2c3c([nH]c2c1)[C@@H](CO)N(C(=O)Nc1cccc(F)c1)CC31CCN(S(=O)(=O)c2cccc(C)c2)CC1`: the AC50 in [11] was 6 µM (active). Turning to `O=S(=O)(c1ccccc1F)N1CC[C@@H]2[C@H](CO)Nc3ccc(C4=CCCCC4)cc3[C@@H]21`, in [11], the AC50 was 28.2 µM (active). As for `C[C@@H]1CN([C@@H](C)CO)C(=O)Cc2cc(NC(=O)Nc3ccc(C(F)(F)F)cc3)ccc2O[C@H]1CN(C)Cc1ccc(Cl)c(Cl)c1`, the AC50 in data set [11] was 11.1 µM (active).

Consider `C=CCn1c(COc2ccccc2)nnc1SCC(=O)N/N=C/c1ccc(C)cc1`, for which the AC50 in [8] (read-out: AC50) was 15.8 µM (inconclusive); in [5], 39.8 µM (inconclusive).

As for `CC(=O)N(/N=C/c1cccc(C)c1)c1nc(-c2ccc(Br)cc2)cs1`, the AC50 in data set [8] (read-out: AC50) was 0.0708 µM (inconclusive); in data set [3] it was 1.12 µM (inconclusive). On to `Cc1cc(C(C)(C)C)ccc1OCC(=O)N/N=C\c1c(C)n(C)n(-c2ccccc2)c1=O`, for which, in data set [2], the EC50 is given as > 195 µM (not active). In the case of `O=S1(=O)OC(c2ccc(O)cc2)(c2ccc(O)cc2)c2ccccc21` [PHENOLSULFONPHTHALEIN], the concentration at half-maximal activity (AC50) in data set [3] is 6.31 µM (inconclusive).
